From publication PMC11909324 (Journal of the Science of Food and Agriculture, 2024)

Key:
xanthine oxidase (XO) [1] = molecular target: T1, xanthine oxidase (XO) (Bos taurus, UniProt P80457); assay: XO assay with 6MP as substrate (6-thiouric acid formation, HPLC-UV); assay type: biochemical, bovine; conditions: inhibitor 20 μmol L^−1; 6MP 5 μmol L^−1;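 also: incubation in 0.05 mol L^−1 sodium phosphate buffer, with 6MP and 6-thiouric acid quantified by HPLC-UV and conversion taken as the product share of substrate plus product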
T1 construct: XO (from bovine milk); purchased Merck (Darmstadt, Germany); host or cells: bovine milk (natural source)

[2] = cited from earlier work
xanthine oxidase (XO) [3] = molecular target: T1, xanthine oxidase (XO); assay: XO assay with xanthine as substrate (uric acid formation, HPLC-UV); assay type: biochemical, bovine; conditions: inhibitor 20 μmol L^−1; xanthine 5 μmol L^−1; read-out: decrease in uric acid production (inhibition of XO-catalyzed xanthine oxidation);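 also: incubations in 0.05 mol L^−1 sodium phosphate buffer, with uric acid and remaining xanthine both quantified by HPLC-UV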
[4] = humans; peroral high doses (0.5–5.0 g) of RES; cited from earlier work

T1 sequence (P80457 whole entry): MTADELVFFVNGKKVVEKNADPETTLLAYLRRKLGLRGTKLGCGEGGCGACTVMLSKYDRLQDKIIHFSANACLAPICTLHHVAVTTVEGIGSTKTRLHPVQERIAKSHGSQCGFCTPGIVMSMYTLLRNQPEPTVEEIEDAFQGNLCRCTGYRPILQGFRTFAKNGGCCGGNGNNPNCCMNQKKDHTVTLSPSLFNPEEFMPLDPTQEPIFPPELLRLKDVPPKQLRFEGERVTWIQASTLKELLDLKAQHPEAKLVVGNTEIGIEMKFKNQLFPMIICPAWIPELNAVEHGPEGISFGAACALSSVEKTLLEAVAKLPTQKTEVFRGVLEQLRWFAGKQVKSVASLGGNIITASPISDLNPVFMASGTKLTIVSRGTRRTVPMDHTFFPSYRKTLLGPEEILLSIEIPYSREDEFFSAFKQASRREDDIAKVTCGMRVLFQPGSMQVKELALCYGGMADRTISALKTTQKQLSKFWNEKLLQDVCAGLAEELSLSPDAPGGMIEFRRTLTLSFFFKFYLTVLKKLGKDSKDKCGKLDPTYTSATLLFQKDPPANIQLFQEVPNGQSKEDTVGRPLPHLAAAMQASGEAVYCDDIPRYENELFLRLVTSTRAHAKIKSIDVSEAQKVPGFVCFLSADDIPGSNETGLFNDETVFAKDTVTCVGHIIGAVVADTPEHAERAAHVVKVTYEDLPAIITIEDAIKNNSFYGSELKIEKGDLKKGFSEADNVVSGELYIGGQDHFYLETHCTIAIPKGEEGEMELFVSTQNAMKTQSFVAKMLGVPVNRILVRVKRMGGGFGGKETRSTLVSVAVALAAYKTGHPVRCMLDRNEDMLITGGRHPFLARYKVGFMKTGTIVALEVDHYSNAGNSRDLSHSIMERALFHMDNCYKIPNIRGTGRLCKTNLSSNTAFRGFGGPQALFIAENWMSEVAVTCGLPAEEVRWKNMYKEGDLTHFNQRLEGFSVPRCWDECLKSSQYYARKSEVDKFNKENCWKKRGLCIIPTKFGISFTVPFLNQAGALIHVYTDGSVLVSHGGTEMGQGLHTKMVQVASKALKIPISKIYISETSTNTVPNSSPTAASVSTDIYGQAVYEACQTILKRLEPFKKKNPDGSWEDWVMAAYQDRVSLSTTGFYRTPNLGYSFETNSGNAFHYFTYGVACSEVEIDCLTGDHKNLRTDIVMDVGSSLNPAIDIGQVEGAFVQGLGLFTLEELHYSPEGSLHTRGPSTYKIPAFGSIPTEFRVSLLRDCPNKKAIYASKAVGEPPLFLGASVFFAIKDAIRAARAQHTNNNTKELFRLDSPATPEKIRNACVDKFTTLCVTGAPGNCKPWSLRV

Row | decrease in 6-thiouric acid formation (inhibition of XO-catalyzed 6MP oxidation) (xanthine oxidase (XO) [1]) | inhibition at 20 µM (xanthine oxidase (XO) [3]) | Structure (SMILES) | oral bioavailability [2] | peak plasma concentrations [4]
1 | weak to moderate inhibitors |  | Oc1ccc(/C=C/c2cc(O)cc(O)c2)cc1 [RES, resveratrol] | less than 1% | 
2 | weak to moderate inhibitors | 27% | O=S(=O)(O)Oc1cc(O)cc(C=Cc2ccc(O)cc2)c1 [R3S, resveratrol‐3‐sulfate] |  | 10 to 20 µmol/L
